The results in this text go back to PubChem BioAssay (NCI).

Test systems include NCI/ADR-RES ovarian; SR leukemia; IGROV1 ovarian; OVCAR-4 ovarian; EKVX NSCLC; HT29 colon; SNB-19 CNS; NCI-H226 lung.
Experiment in all cases: growth of human tumour cells (NCI), 48 h

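Growth conditions: 96-well plates. Treatment: test compound, 48 hours, 5 concentrations. Analysis: linear interpolation between bracketing concentrations; unreached endpoints set to highest concentration. The concentration for 50% growth inhibition is given as GI50. Definition used: TGI = concentration required for complete inhibition of growth.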 Some results are limits rather than exact numbers.

`CC(C)(C)NC(C1=CC(C)(C)c2ccccc2C1=O)c1ccccc1` (centres undefined): the GI50 in the assay with NCI/ADR-RES ovarian is 2.45 µM; in the assay with SR leukemia, 0.293 µM; in the assay with IGROV1 ovarian, 1.52 µM; with OVCAR-4 ovarian, 1.51 µM; with EKVX NSCLC, 1.67 µM; in the assay on HT29 colon, 1.54 µM. Also, the GI50 with SNB-19 CNS was 3.36 µM; in the assay on NCI-H226 lung it was 1.42 µM. The TGI is 6.29 µM in the assay with NCI/ADR-RES ovarian; 1.74 µM with SR leukemia; 4.87 µM with IGROV1 ovarian; 5.93 µM in the assay with OVCAR-4 ovarian; 4.61 µM in the assay on EKVX NSCLC; 2.88 µM in the assay on HT29 colon. Further, the results for the TGI in the assay on SNB-19 CNS and with NCI-H226 lung were 14.2 µM and 3.17 µM, respectively.

Regarding `C[C@@H]1CN(C(=O)c2ccc(NC(=O)c3cc(O[C@H](C)c4c(Cl)ccc(F)c4Cl)c(N)nn3)cc2)C[C@H](C)N1`, the GI50 in the assay on NCI/ADR-RES ovarian is 11.7 µM; in the assay on SR leukemia it was 0.0104 µM; with IGROV1 ovarian, 4.38 µM; with OVCAR-4 ovarian, 8.84 µM; in the assay with EKVX NSCLC, 5.66 µM; in the assay with HT29 colon it was 1.19 µM. For the same compound, the GI50 in the assay with SNB-19 CNS was 5.41 µM; in the assay on NCI-H226 lung, 3.9 µM. Besides, the TGI is 31.1 µM in the assay with NCI/ADR-RES ovarian; 2.78 µM in the assay on SR leukemia; 20.4 µM with IGROV1 ovarian; 24.1 µM with OVCAR-4 ovarian; 21.3 µM in the assay on EKVX NSCLC; 3.46 µM in the assay on HT29 colon. Further, the TGI in the assay with SNB-19 CNS amounted to 18.1 µM; in the assay with NCI-H226 lung, 22.5 µM.

As to `Cc1nn(-c2nc3ccccc3s2)c(C)c1Oc1ccccc1O`, the GI50 in the assay on NCI/ADR-RES ovarian was 3.6 µM; with SR leukemia, 0.536 µM; in the assay with IGROV1 ovarian, 12.6 µM; in the assay on OVCAR-4 ovarian, 10.3 µM; in the assay on EKVX NSCLC, 10.4 µM; with HT29 colon it was 4.95 µM. In addition, the figures for the GI50 with SNB-19 CNS and in the assay with NCI-H226 lung were 6.77 µM and 9.07 µM, respectively. In addition, the TGI turned out to be 23.3 µM with NCI/ADR-RES ovarian; 2.05 µM in the assay with SR leukemia; 35.8 µM with IGROV1 ovarian; 29.5 µM in the assay with OVCAR-4 ovarian; 22.3 µM in the assay on EKVX NSCLC; 20.3 µM with HT29 colon. Further, the values for the TGI with SNB-19 CNS and with NCI-H226 lung were 20.3 µM and 26 µM, respectively.

With `Nc1nc(N)c(N=O)c(Nc2ccc(O)cc2)n1`, the TGI in the assay on NCI/ADR-RES ovarian is above 50.4 µM; with SR leukemia, 97.7 µM; with IGROV1 ovarian it was 44.8 µM; with OVCAR-4 ovarian, above 100 µM; with EKVX NSCLC, above 100 µM; in the assay with HT29 colon, above 100 µM. Moreover, the results for the TGI in the assay on SNB-19 CNS and in the assay on NCI-H226 lung were above 100 µM and 96 µM, respectively.

Take `O=C(CN1CCN(c2ncnc3ccccc23)CC1)Nc1ccc(Cl)cc1C(=O)c1ccccc1Cl`: the GI50 was 3.12 µM with NCI/ADR-RES ovarian; 0.263 µM with SR leukemia; 1.7 µM with IGROV1 ovarian; 1.32 µM in the assay with OVCAR-4 ovarian; 2.74 µM with EKVX NSCLC; 0.394 µM in the assay with HT29 colon. Moreover, the GI50 in the assay with SNB-19 CNS is 1.71 µM; with NCI-H226 lung, 1.15 µM. Moreover, the TGI in the assay with NCI/ADR-RES ovarian was found to be 16.3 µM; in the assay with IGROV1 ovarian, 14.4 µM; in the assay with OVCAR-4 ovarian, 9.36 µM; in the assay with EKVX NSCLC it was 7.27 µM; in the assay on HT29 colon it was 9.4 µM; in the assay on SNB-19 CNS it was 12.2 µM. Moreover, the TGI with NCI-H226 lung amounted to 6.26 µM.

As for `COC(=O)Nc1nc2ccc(Oc3ccc(NC(=O)Nc4cccc(C(=O)O)c4)cc3)cc2[nH]1`, the GI50 in the assay with NCI/ADR-RES ovarian was 6.13 µM; in the assay with SR leukemia, 2.41 µM; in the assay with IGROV1 ovarian it was 12.7 µM; in the assay with OVCAR-4 ovarian, 9.77 µM; with EKVX NSCLC, above 23 µM; with HT29 colon, 7.35 µM. For the same compound, the values for the GI50 in the assay with SNB-19 CNS and with NCI-H226 lung were 9.36 µM and 5.2 µM, respectively. Moreover, the TGI in the assay on NCI/ADR-RES ovarian was above 17.4 µM; in the assay on SR leukemia it was above 25 µM; with IGROV1 ovarian, above 25 µM; in the assay with OVCAR-4 ovarian it was above 25 µM; in the assay on EKVX NSCLC, above 25 µM; in the assay with HT29 colon, above 25 µM. For the same compound, the TGI with SNB-19 CNS and in the assay with NCI-H226 lung was above 25 µM in each case.

Regarding `COc1ccc2c(c1)C(=O)/C(=C/c1cccc(OCC(=O)Nc3nc4c(s3)CCCC4)c1)O2`, the GI50 is 2.12 µM in the assay with NCI/ADR-RES ovarian; 0.156 µM in the assay on SR leukemia; below 0.0153 µM in the assay on IGROV1 ovarian; 2.57 µM in the assay with OVCAR-4 ovarian; 2.52 µM with EKVX NSCLC; 0.642 µM in the assay on HT29 colon. Also, the GI50 with SNB-19 CNS was 13.9 µM; in the assay with NCI-H226 lung, 11.3 µM. In addition, the TGI worked out at 6.37 µM with NCI/ADR-RES ovarian; 0.351 µM in the assay with SR leukemia; 0.054 µM with IGROV1 ovarian; 8.52 µM with OVCAR-4 ovarian; 8.73 µM in the assay on EKVX NSCLC; 1.8 µM with HT29 colon. Besides, the TGI with SNB-19 CNS turned out to be 30.4 µM; in the assay on NCI-H226 lung, 42.1 µM.

As for `COc1ccc(N(CC(=O)NCCC[Te]c2ccccc2)C(=O)c2ccccc2)cc1`, the GI50 in the assay on NCI/ADR-RES ovarian was 3.23 µM; in the assay on SR leukemia, 2.82 µM; in the assay with IGROV1 ovarian, 2.88 µM; in the assay with OVCAR-4 ovarian it was 11.9 µM; in the assay on EKVX NSCLC it was 0.407 µM; in the assay with HT29 colon it was 3.84 µM. Also, the GI50 in the assay on SNB-19 CNS was 4.06 µM; in the assay on NCI-H226 lung, 2.62 µM. Also, the TGI in the assay with NCI/ADR-RES ovarian was 10.8 µM; with IGROV1 ovarian, 8.27 µM; in the assay with OVCAR-4 ovarian, 25.2 µM; with EKVX NSCLC, 5.27 µM; in the assay with HT29 colon it was above 100 µM; in the assay on SNB-19 CNS it was 59 µM. The TGI in the assay with NCI-H226 lung amounted to 7.21 µM.

Consider `Oc1ccc2cc(Br)ccc2c1-c1c(O)ccc2cc(Br)ccc12`, for which the GI50 in the assay on NCI/ADR-RES ovarian is 2.97 µM; in the assay on SR leukemia it was 2.52 µM; in the assay with IGROV1 ovarian, 2.06 µM; in the assay with OVCAR-4 ovarian, 4.89 µM; in the assay on EKVX NSCLC it was 3.54 µM; with HT29 colon, 1.75 µM. Besides, the GI50 with SNB-19 CNS is 3.92 µM; with NCI-H226 lung, 2.66 µM. The TGI came out at 9.22 µM with NCI/ADR-RES ovarian; 7.43 µM in the assay on SR leukemia; 11.8 µM in the assay on IGROV1 ovarian; 14.6 µM in the assay on OVCAR-4 ovarian; 13.5 µM with EKVX NSCLC; 3.34 µM in the assay on HT29 colon. Besides, the TGI in the assay on SNB-19 CNS was determined as 15.9 µM; in the assay on NCI-H226 lung, 8.9 µM.
